From paper PMC5741980 (Journal of Experimental Pharmacology, 2017)
Peptide text beside a SMILES is read from it.

Assays:
V1 activation = settings: rat model of portal hypertension, cited from earlier work
human V1 receptors [1] = molecular target: T1, human V1 receptors (Homo sapiens, UniProt P37288); assay: Competitive binding assay, [3H]AVP, CHO-S cell membrane homogenates; settings: for affinity (selectivity) for V1 higher than for V2: this study
human V2 receptors [2] = molecular target: T2, human V2 receptors (Homo sapiens, UniProt P30518); assay: Competitive binding assay, [3H]AVP, CHO-K1 cell membrane homogenates
human V1 receptors [3] = molecular target: T1, human V1 receptors; assay: Functional assay, intracellular calcium mobilization; format: cell-based; settings: compared with maximal effect of AVP
human V2 receptors [4] = molecular target: T2, human V2 receptors; assay: Functional assay, cAMP production; format: cell-based; settings: compared with maximal effect of AVP
human V1 receptors [5] = molecular target: T1, human V1 receptors; settings: cited from earlier work; for Ki: read-out: mean binding affinity (Ki) for human V1 receptors, human vascular smooth muscle cells
rat V1 receptors [6] = settings: cited from earlier work
human V1 receptors [7] = molecular target: T1, human V1 receptors; settings: intracellular calcium mobilization; cited from earlier work
rat V1 receptors [8] = settings: intracellular calcium mobilization; cited from earlier work
V1 = settings: cited from earlier work; for EC50: read-out: EC50 for V1 activation, recombinant system, functional assay

T2 sequence (P30518 whole entry): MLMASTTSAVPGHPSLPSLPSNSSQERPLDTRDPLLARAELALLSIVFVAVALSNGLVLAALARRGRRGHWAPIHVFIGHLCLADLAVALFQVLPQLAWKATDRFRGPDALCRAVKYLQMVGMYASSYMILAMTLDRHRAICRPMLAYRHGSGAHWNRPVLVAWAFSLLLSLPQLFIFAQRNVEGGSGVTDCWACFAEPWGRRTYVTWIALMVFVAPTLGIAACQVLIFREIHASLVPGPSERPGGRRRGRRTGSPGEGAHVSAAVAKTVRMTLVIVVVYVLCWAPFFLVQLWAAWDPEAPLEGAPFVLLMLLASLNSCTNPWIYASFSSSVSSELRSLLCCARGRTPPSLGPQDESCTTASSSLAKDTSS
T1 sequence (P37288 whole entry): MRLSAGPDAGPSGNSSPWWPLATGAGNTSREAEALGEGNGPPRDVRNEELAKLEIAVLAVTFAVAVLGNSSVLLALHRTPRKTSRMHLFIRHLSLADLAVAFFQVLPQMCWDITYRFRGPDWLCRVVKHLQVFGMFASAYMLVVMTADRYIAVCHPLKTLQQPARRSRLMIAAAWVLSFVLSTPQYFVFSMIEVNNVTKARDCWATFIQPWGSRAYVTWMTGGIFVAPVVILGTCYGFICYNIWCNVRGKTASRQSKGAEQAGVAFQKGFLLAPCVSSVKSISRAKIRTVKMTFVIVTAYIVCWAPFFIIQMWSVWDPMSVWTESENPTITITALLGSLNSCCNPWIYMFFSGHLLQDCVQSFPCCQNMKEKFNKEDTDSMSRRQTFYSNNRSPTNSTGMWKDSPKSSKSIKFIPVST

| Compound | mean potency for V1 activation in vasopressor tests (V1 activation) | affinity (selectivity) for V1 higher than for V2 (human V1 receptors [1]) | binding affinity less than that of LVP, V1 receptors (human V1 receptors [1]; versus LVP) | binding affinity less than that of LVP, V2 receptors (human V2 receptors [2]; versus LVP) | agonist type at V1 receptors (human V1 receptors [3]) | agonist type at V2 receptors (human V2 receptors [4]) | selectivity for V1 receptors higher than for V2 receptors (human V1 receptors [5]; Colson et al) | Ki (human V1 receptors [5]) | binding affinity less than that of LVP, human V1 receptors (human V1 receptors [5]; versus LVP) | difference in binding versus LVP at rat V1 receptors (rat V1 receptors [6]) | mean maximal cell activation at human V1 receptors (human V1 receptors [7]) | mean maximal cell activation at rat V1 receptors (rat V1 receptors [8]) | mean potency less than that of vasopressin (V1 activation; vasopressor tests) | EC50 (V1) | EC50 higher than that for LVP (V1; versus LVP) | binding affinity less than that of AVP, V1 receptors (human V1 receptors [1]; versus AVP) | binding affinity less than that of AVP, V2 receptors (human V2 receptors [2]; versus AVP) |
| --- | --- | --- | --- | --- | --- | --- | --- | --- | --- | --- | --- | --- | --- | --- | --- | --- | --- |
| vasopressin: vasopressin comparator in Bernadich et al rat vasopressor tests; probably AVP | 614 IU×µmol^−1 |  |  |  |  |  |  |  |  |  |  |  |  |  |  |  |  |
| NCCCC[C@H](NC(=O)[C@@H]1CCCN1C(=O)[C@@H]1CSSC[C@H](NC(=O)CNC(=O)CNC(=O)CN)C(=O)N[C@@H](Cc2ccc(O)cc2)C(=O)N[C@@H](Cc2ccccc2)C(=O)N[C@@H](CCC(N)=O)C(=O)N[C@@H](CC(N)=O)C(=O)N1)C(=O)NCC(N)=O [Terlipressin, N^α-tryglycl-8-lysine-vasopressin] (HELM PEPTIDE1{G.G.G.C.Y.F.Q.N.C.P.K.G.[am]}$PEPTIDE1,PEPTIDE1,4:R3-9:R3$$$V2.0; bridges inferred) | 9 IU×µmol^−1 | approximately sixfold | about 600 fold | about 700 fold | partial agonist | full agonist | 1.9 fold | 1.23 µM | about 120 fold | ~700 fold | 48% | 66% | about 66 fold | 0.148 µM | about 150 fold |  |  |
| NCCCC[C@H](NC(=O)[C@@H]1CCCN1C(=O)[C@@H]1CSSC[C@H](N)C(=O)N[C@@H](Cc2ccc(O)cc2)C(=O)N[C@@H](Cc2ccccc2)C(=O)N[C@@H](CCC(N)=O)C(=O)N[C@@H](CC(N)=O)C(=O)N1)C(=O)NCC(N)=O [LVP, [Lys8]-vasopressin] |  | approximately sixfold |  |  | full agonist | full agonist |  | 0.01 µM |  |  | 100% | 100% |  | 0.00093 µM |  | about twofold | about 12 fold |
